Reference: US6737383B1, “Herbicidal oxadiazolidines” (priority 1999, dated 2004)

Columns and labels:
surinam grass = experiment: Test B pre/postemergence surinam grass; assay type: in vivo, Brachiaria decumbens
Procedure, shortened: (§1)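 Test chemicals in a non-phytotoxic solvent mixture with surfactant were sprayed preemergence onto planted seeds and postemergence onto plants 2 to 18 cm tall (1- to 4-leaf stage). After twelve to sixteen days in a greenhouse, injury was visually rated against untreated controls from 0 (no effect) to 10 (complete control).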

soybean = experiment: Test B pre/postemergence soybean; assay type: in vivo, Glycine max
Procedure, shortened: as §1

wheat = experiment: Test B pre/postemergence wheat; assay type: in vivo, Triticum aestivum
Procedure, shortened: as §1

sugar beet = experiment: Test B pre/postemergence sugar beet; assay type: in vivo, Beta vulgaris
Procedure, shortened: as §1

blackgrass = experiment: Test B pre/postemergence blackgrass; assay type: in vivo, Alopecurus myosuroides
Procedure, shortened: as §1

corn = experiment: Test B pre/postemergence corn; assay type: in vivo, Zea mays
Procedure, shortened: as §1

smallflower flatsedge = experiment: Test B flood test smallflower flatsedge; assay type: in vivo, Cyperus difformis
Procedure, shortened: (§2)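 Flood test on plants grown to the 2-leaf stage; treated plants kept in greenhouse twelve to sixteen days, then visually rated against controls on a 0 (no effect) to 10 (complete control) scale.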

wild oat = experiment: Test B pre/postemergence wild oat; assay type: in vivo, Avena fatua
Procedure, shortened: as §1

duck salad = experiment: Test B flood test duck salad; assay type: in vivo, Heteranthera limosa
Procedure, shortened: as §2

rape = experiment: Test B pre/postemergence rape; assay type: in vivo, Brassica napus
Procedure, shortened: as §1

morningglory = experiment: Test B pre/postemergence morningglory; assay type: in vivo, Ipomoea hederacea
Procedure, shortened: as §1

crabgrass = experiment: Test B pre/postemergence crabgrass; assay type: in vivo, Digitaria sanguinalis
Procedure, shortened: as §1

giant foxtail = experiment: Test B pre/postemergence giant foxtail; assay type: in vivo, Setaria faberii
Procedure, shortened: as §1

cocklebur = experiment: Test B pre/postemergence cocklebur; assay type: in vivo, Xanthium strumarium
Procedure, shortened: as §1

velvetleaf = experiment: Test B pre/postemergence velvetleaf; assay type: in vivo, Abutilon theophrasti
Procedure, shortened: as §1

purple nutsedge = experiment: Test B pre/postemergence purple nutsedge; assay type: in vivo, Cyperus rotundus
Procedure, shortened: as §1

[1] = Postemergence, Rate 62 g/ha, scale 0 to 10, 0 is no effect, 10 is complete control
[2] = Postemergence, Rate 250 g/ha, scale 0 to 10, 0 no effect, 10 complete control
[3] = Preemergence, Rate 62 g/ha, scale 0 to 10 (0 no effect, 10 complete control)
[4] = Preemergence, Rate 125 g/ha, scale 0 to 10 (0 no effect, 10 complete control)
[5] = Preemergence, Rate 250 g/ha, scale of 0 to 10 where 0 is no effect and 10 is complete control
[6] = Preemergence, Rate 500 g/ha, scale 0 (no effect) to 10 (complete control)
[7] = Rate 125 g/ha, Postemergence, scale 0 to 10, 0 no effect, 10 complete control
[8] = Rate 500 g/ha, Postemergence, scale 0 to 10, 0 no effect, 10 complete control
[9] = Rate 62 g/ha, headed Pre-emergence (flood test species), scale 0 to 10 (0 no effect, 10 complete control)
[10] = Rate 125 g/ha, Pre-emergence, flood test species, scale 0 to 10 where 0 is no effect and 10 is complete control
[11] = Rate 250 g/ha, headed Pre-emergence (flood test species), scale 0 to 10 (0 no effect, 10 complete control)
[12] = Rate 500 g/ha, headed Pre-emergence (flood test species), scale 0 to 10 (0 no effect, 10 complete control)

Structure (SMILES): Cc1cccc(C)c1-n1c(=O)on(C(=O)N(Cc2ccccc2)C(C)C)c1=O [Compound 69]
- B. signalgrass plant response rating (surinam grass; [1]): 0
- B. signalgrass plant response rating (surinam grass; [2]): 0
- B. signalgrass plant response rating (surinam grass; [3]): 0
- Plant response rating, B. signalgrass (surinam grass; [4]): 0
- Plant response rating, B. signalgrass (surinam grass; [5]): 0
- B. signalgrass plant response rating (surinam grass; [6]): 0
- B. signalgrass plant response rating (surinam grass; [7]): 0
- Soybean plant response rating (soybean; [1]): 2
- Soybean plant response rating (soybean; [2]): 2
- Soybean plant response rating (soybean; [3]): 0
- Plant response rating, Soybean (soybean; [4]): 0
- Plant response rating, Soybean (soybean; [5]): 0
- Soybean plant response rating (soybean; [6]): 0
- Soybean plant response rating (soybean; [7]): 2
- Soybean plant response rating (soybean; [8]): 3
- Wheat plant response rating (wheat; [1]): 0
- Wheat plant response rating (wheat; [2]): 0
- Wheat plant response rating (wheat; [3]): 0
- Plant response rating, Wheat (wheat; [4]): 0
- Plant response rating, Wheat (wheat; [5]): 0
- Wheat plant response rating (wheat; [6]): 0
- Wheat plant response rating (wheat; [7]): 0
- Wheat plant response rating (wheat; [8]): 0
- Sugarbeets plant response rating (sugar beet; [1]): 0
- Sugarbeets plant response rating (sugar beet; [2]): 0
- Sugarbeets plant response rating (sugar beet; [3]): 0
- Plant response rating, Sugarbeets (sugar beet; [4]): 0
- Plant response rating, Sugarbeets (sugar beet; [5]): 0
- Sugarbeets plant response rating (sugar beet; [6]): 0
- Sugarbeets plant response rating (sugar beet; [7]): 0
- Sugarbeets plant response rating (sugar beet; [8]): 0
- Blackgrass plant response rating (blackgrass; [1]): 0
- Blackgrass plant response rating (blackgrass; [2]): 0
- Blackgrass plant response rating (blackgrass; [3]): 0
- Plant response rating, Blackgrass (blackgrass; [4]): 0
- Plant response rating, Blackgrass (blackgrass; [5]): 0
- Blackgrass plant response rating (blackgrass; [6]): 0
- Blackgrass plant response rating (blackgrass; [7]): 0
- Blackgrass plant response rating (blackgrass; [8]): 0
- Corn plant response rating (corn; [1]): 0
- Corn plant response rating (corn; [2]): 0
- Corn plant response rating (corn; [3]): 0
- Plant response rating, Corn (corn; [4]): 0
- Plant response rating, Corn (corn; [5]): 0
- Corn plant response rating (corn; [6]): 0
- Corn plant response rating (corn; [7]): 0
- Corn plant response rating (corn; [8]): 0
- S. Flatsedge plant response rating (smallflower flatsedge; [9]): 0
- S. Flatsedge plant response rating (smallflower flatsedge; [10]): 0
- S. Flatsedge plant response rating (smallflower flatsedge; [11]): 0
- Plant response rating, S. Flatsedge (smallflower flatsedge; [12]): 0
- Wild oats plant response rating (wild oat; [1]): 0
- Wild oats plant response rating (wild oat; [2]): 0
- Wild oats plant response rating (wild oat; [3]): 0
- Plant response rating, Wild oats (wild oat; [4]): 0
- Plant response rating, Wild oats (wild oat; [5]): 0
- Wild oats plant response rating (wild oat; [6]): 0
- Wild oats plant response rating (wild oat; [7]): 0
- Wild oats plant response rating (wild oat; [8]): 0
- Ducksalad plant response rating (duck salad; [9]): 0
- Ducksalad plant response rating (duck salad; [10]): 0
- Ducksalad plant response rating (duck salad; [11]): 0
- Plant response rating, Ducksalad (duck salad; [12]): 0
- Rape plant response rating (rape; [1]): 0
- Rape plant response rating (rape; [2]): 0
- Rape plant response rating (rape; [3]): 0
- Plant response rating, Rape (rape; [4]): 0
- Plant response rating, Rape (rape; [5]): 0
- Rape plant response rating (rape; [6]): 0
- Rape plant response rating (rape; [7]): 0
- Rape plant response rating (rape; [8]): 0
- Morningglory plant response rating (morningglory; [1]): 0
- Morningglory plant response rating (morningglory; [2]): 0
- Morningglory plant response rating (morningglory; [3]): 0
- Plant response rating, Morningglory (morningglory; [4]): 0
- Plant response rating, Morningglory (morningglory; [5]): 0
- Morningglory plant response rating (morningglory; [6]): 0
- Morningglory plant response rating (morningglory; [7]): 0
- Morningglory plant response rating (morningglory; [8]): 0
- Crabgrass plant response rating (crabgrass; [1]): 0
- Crabgrass plant response rating (crabgrass; [2]): 1
- Crabgrass plant response rating (crabgrass; [3]): 0
- Plant response rating, Crabgrass (crabgrass; [4]): 0
- Plant response rating, Crabgrass (crabgrass; [5]): 2
- Crabgrass plant response rating (crabgrass; [6]): 4
- Crabgrass plant response rating (crabgrass; [7]): 0
- Crabgrass plant response rating (crabgrass; [8]): 1
- Giant foxtail plant response rating (giant foxtail; [1]): 0
- Giant foxtail plant response rating (giant foxtail; [2]): 0
- Giant foxtail plant response rating (giant foxtail; [3]): 0
- Plant response rating, Giant foxtail (giant foxtail; [4]): 0
- Plant response rating, Giant foxtail (giant foxtail; [5]): 4
- Giant foxtail plant response rating (giant foxtail; [6]): 4
- Giant foxtail plant response rating (giant foxtail; [7]): 0
- Giant foxtail plant response rating (giant foxtail; [8]): 1
- Cocklebur plant response rating (cocklebur; [1]): 0
- Cocklebur plant response rating (cocklebur; [2]): 0
- Cocklebur plant response rating (cocklebur; [3]): 0
- Plant response rating, Cocklebur (cocklebur; [4]): 0
- Plant response rating, Cocklebur (cocklebur; [5]): 0
- Cocklebur plant response rating (cocklebur; [6]): 0
- Cocklebur plant response rating (cocklebur; [7]): 0
- Cocklebur plant response rating (cocklebur; [8]): 0
- Velvetleaf plant response rating (velvetleaf; [1]): 0
- Velvetleaf plant response rating (velvetleaf; [2]): 0
- Velvetleaf plant response rating (velvetleaf; [3]): 0
- Plant response rating, Velvetleaf (velvetleaf; [4]): 0
- Plant response rating, Velvetleaf (velvetleaf; [5]): 0
- Velvetleaf plant response rating (velvetleaf; [6]): 0
- Velvetleaf plant response rating (velvetleaf; [7]): 0
- Velvetleaf plant response rating (velvetleaf; [8]): 2
- Nutsedge plant response rating (purple nutsedge; [1]): 0
- Nutsedge plant response rating (purple nutsedge; [2]): 0
- Nutsedge plant response rating (purple nutsedge; [3]): 0
- Plant response rating, Nutsedge (purple nutsedge; [4]): 0
- Plant response rating, Nutsedge (purple nutsedge; [5]): 0
- Nutsedge plant response rating (purple nutsedge; [6]): 0
- Nutsedge plant response rating (purple nutsedge; [7]): 0
- Nutsedge plant response rating (purple nutsedge; [8]): 0
